Values quoted from earlier work as cited in patent US20100167984A1, “Complex between human insulin and an amphiphilic polymer and use of this complex in the preparation of a fast-acting human insulin formulation” (ADOCIA, priority 2008, published 2010).

Key:
[1] = due to dissociation equilibria of hexamers; Brange J. et al. 1999
[2] = hexamer form, at 4° C.

Which “slowing down of action in comparison with a fast-acting insulin analog” value [1] does the source give for “Human insulin: human insulin, assembled in the hexamer form” here?
The value was “approximately 20 minutes”.

What about the “stability (storage time)” value [2] of the same substance?
The value was “approximately 2 years”.
